In patent US20070249590A1, “Substituted indolo[2,3-a]pyrrolo[3,4-c]carbazole compounds useful in treating kinase disorders” (priority 2005, published 2007) one finds IC50 data, which are given here for 26 molecules.

Bounds are passed on as bounds.

The target of this assay is T1, JAK3 (JH1 and JH2 domain) (Homo sapiens, UniProt P52333).
T1 sequence (P52333 521-1111 limits assumed): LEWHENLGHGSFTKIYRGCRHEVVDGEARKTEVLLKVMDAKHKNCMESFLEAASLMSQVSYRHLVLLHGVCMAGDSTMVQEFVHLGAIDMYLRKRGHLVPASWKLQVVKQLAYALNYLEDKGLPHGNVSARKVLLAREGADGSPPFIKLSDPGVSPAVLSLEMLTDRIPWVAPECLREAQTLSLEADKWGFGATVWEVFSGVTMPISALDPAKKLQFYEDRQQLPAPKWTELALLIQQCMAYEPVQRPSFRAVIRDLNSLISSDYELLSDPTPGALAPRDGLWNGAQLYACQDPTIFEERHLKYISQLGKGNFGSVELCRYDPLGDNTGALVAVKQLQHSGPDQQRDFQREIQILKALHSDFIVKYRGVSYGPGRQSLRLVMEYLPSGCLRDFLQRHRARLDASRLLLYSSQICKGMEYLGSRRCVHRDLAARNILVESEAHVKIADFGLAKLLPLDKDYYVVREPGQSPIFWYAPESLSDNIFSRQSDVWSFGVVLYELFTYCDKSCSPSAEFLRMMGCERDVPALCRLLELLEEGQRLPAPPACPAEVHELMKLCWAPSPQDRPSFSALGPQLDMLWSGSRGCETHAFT
The assay can be described thus: JAK3 Kinase Assay (ELISA of peptide substrate phosphorylation). Format: biochemical. Conditions: purified JAK3 enzyme, 10 μM ATP, biotinylated peptide substrate, 1 hour at room temperature. In a few lines: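 Sf21-baculovirus-expressed JAK3 (JH1+JH2), glutathione-bead purified, with biotinylated peptide substrate (in buffer containing 10 μM ATP) in HEPES pH 7.5/MgCl2/DTT, 1 h RT. Product was captured on Neutravidin, detected with HRP anti-phosphotyrosine (PY99)/TMB, OD 450/650 nm. Triplicate 16-point half-log series from 200 μM gave IC50; otherwise % inhibition at 1 μM.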
A word on the IC50: it is the point on the concentration scale where inhibition reaches its midpoint. As for `O=C1NCc2c1c1c3ccccc3n3c1c1c2c2ccccc2n1CC(O)(COC(=O)N1CCCNCC1)C3` (centres unmarked) [Cpd 146, 12,13-{2-hydroxy-2-[(hexahydro-1H-1,4-diazepin-1-yl)carbonyloxymethyl]-propan-1,3-yl}-6,7,12,13-tetrahydro-5-oxo-5H-indolo[2,3-a]pyrrolo[3,4-c]carbazole], the IC50 worked out at 26 nM. For `O=C(NCc1ccncc1)OC1Cn2c3ccccc3c3c4c(c5c6ccccc6n(c5c32)CC1O)C(=O)NC4=O` (centres unmarked) [Cpd 89, 12,13-{2-[(pyridin-4-yl-methyl)carbamoyloxy]-3-hydroxy-butan-1,4-yl}-12,13-dihydro-5,7-dioxo-6H-indolo[2,3-a]pyrrolo[3,4-c]carbazole], the IC50 was determined as 27 nM. For `CN(C)CCNC(=O)OC1CCCn2c3ccccc3c3c4c(c5c6ccccc6n(c5c32)C1)C(=O)NC4=O` (centres unmarked) [Cpd 114, 12,13-{2-[(2-dimethylamino-ethyl)carbamoyloxy]-pentan-1,5-yl}-12,13-dihydro-5,7-dioxo-6H-indolo[2,3-a]pyrrolo[3,4-c]carbazole] the value was 125 nM.

Consider `O=C1NCc2c1c1c3ccccc3n3c1c1c2c2ccccc2n1C[C@H](O)[C@@H](O)C3` [Cpd 18, 12,13-[(2S,3S)-dihydroxy-butan-1,4-yl]-6,7,12,13-tetrahydro-5-oxo-5H-indolo[2,3-a]pyrrolo[3,4-c]carbazole], for which the IC50 turned out to be 32 nM. On to `O=C(NCCN1CCCC1)OC1Cn2c3ccccc3c3c4c(c5c6ccccc6n(c5c32)CC1O)C(=O)NC4=O` (centres unmarked) [Cpd 92, 12,13-{2-[(2-pyrrolidin-1-yl-ethyl)carbamoyloxy]-3-hydroxy-butan-1,4-yl}-12,13-dihydro-5,7-dioxo-6H-indolo[2,3-a]pyrrolo[3,4-c]carbazole], for which the IC50 was 97 nM. Regarding `O=C(NC1CCNCC1)OC1Cn2c3ccccc3c3c4c(c5c6ccccc6n(c5c32)CC1O)C(=O)NC4=O` (centres unmarked) [Cpd 113, 12,13-[2-(piperidin-4-yl-carbamoyloxy)-3-hydroxy-butan-1,4-yl]-12,13-dihydro-5,7-dioxo-6H-indolo[2,3-a]pyrrolo[3,4-c]carbazole], the IC50 was found to be 47 nM.

Consider `O=C1NCc2c1c1c3cc(/C=C/Cn4ccnc4)ccc3n3c1c1c2c2cc(CO)ccc2n1CC(CO)C3` (centres unmarked) [Cpd 223, 3-[(1E)-3-1H-imidazol-1-yl-prop-1-en-1-yl]-9-hydroxymethyl-12,13-(2-hydroxymethyl-propan-1,3-yl)-6,7,12,13-tetrahydro-5-oxo-5H-indolo[2,3-a]pyrrolo[3,4-c]carbazole], for which the IC50 came out at 3 nM. For `O=C1NCc2c1c1c3ccccc3n3c1c1c2c2ccccc2n1C[C@@H](O)[C@H](O)C3` [Cpd 19, 12,13-[(2R,3R)-dihydroxy-butan-1,4-yl]-6,7,12,13-tetrahydro-5-oxo-5H-indolo[2,3-a]pyrrolo[3,4-c]carbazole], the IC50 was found to be 53 nM.

Consider `CN(C)CCNC(=O)OC1CCn2c3ccccc3c3c4c(c5c6ccccc6n(c5c32)C1)C(=O)NC4=O` (centres unmarked) [Cpd 50, 12,13-{2-[(2-dimethylamino-ethyl)carbamoyloxy]-butan-1,4-yl}-12,13-dihydro-5,7-dioxo-6H-indolo[2,3-a]pyrrolo[3,4-c]carbazole], for which the half-inhibitory concentration (IC50) came to 31 nM. For `CC(C)OCc1ccc2c(c1)c1c3c(c4c5cc(COC(C)C)ccc5n5c4c1n2CC(CO)C5)C(=O)NC3` (centres unmarked) [Cpd 210, 3,9-bis-(isopropoxymethyl)-12,13-(2-hydroxymethyl-propan-1,3-yl)-6,7,12,13-tetrahydro-5-oxo-5H-indolo[2,3-a]pyrrolo[3,4-c]carbazole] the value was 1050 nM; for `O=C1NC(=O)c2c1c1c3cc(-c4cnccn4)ccc3n3c1c1c2c2ccccc2n1CC(O)CC3` (centres unmarked) [Cpd 35, 3-pyrazin-2-yl-12,13-(2-hydroxy-butan-1,4-yl)-12,13-dihydro-5,7-dioxo-6H-indolo[2,3-a]pyrrolo[3,4-c]carbazole], 13 nM.

For the molecule `O=C1NC(=O)c2c1c1c3ccccc3n3c1c1c2c2ccccc2n1CC(OC(=O)N1CCN(CCN2CCOCC2)CC1)CC3` (centres unmarked) [Cpd 56, 12,13-(2-{[4-(2-morpholin-4-yl-ethyl)piperazin-1-yl]carbonyloxy}-butan-1,4-yl)-12,13-dihydro-5,7-dioxo-6H-indolo[2,3-a]pyrrolo[3,4-c]carbazole], the IC50 worked out at 115 nM. Regarding `Cc1ccc(CNC(=O)OC2CCn3c4ccccc4c4c5c(c6c7ccccc7n(c6c43)C2)C(=O)NC5=O)cc1` (centres unmarked) [Cpd 45, 12,13-{2-[(4-methyl-benzyl)carbamoyloxy]-butan-1,4-yl}-12,13-dihydro-5,7-dioxo-6H-indolo[2,3-a]pyrrolo[3,4-c]carbazole], the IC50 turned out to be 61 nM. As for `O=C1NCc2c1c1c3cc([N+](=O)[O-])ccc3n3c1c1c2c2ccccc2n1CC(O)C(O)C3` (centres unmarked) [Cpd 191, 3-nitro-12,13-(2,3-dihydroxy-butan-1,4-yl)-6,7,12,13-tetrahydro-5-oxo-5H-indolo[2,3-a]pyrrolo[3,4-c]carbazole], the figure is 115 nM; as for `CN1CCC(N(C)C(=O)OC2Cn3c4ccccc4c4c5c(c6c7ccccc7n(c6c43)CC2O)C(=O)NC5=O)C1` (centres unmarked) [Cpd 108, 12,13-(2-{[N-methyl-N-(1-methyl-pyrrolidin-3-yl)]carbamoyloxy}-3-hydroxy-butan-1,4-yl)-12,13-dihydro-5,7-dioxo-6H-indolo[2,3-a]pyrrolo[3,4-c]carbazole], 46 nM. Consider `CN1CCN(CCCNC(=O)OC2Cn3c4ccccc4c4c5c(c6c7ccccc7n(c6c43)CC2O)C(=O)NC5=O)CC1` (centres unmarked) [Cpd 90, 12,13-(2-{[3-(4-methyl-piperazin-1-yl)prop-1-yl]carbamoyloxy}-3-hydroxy-butan-1,4-yl)-12,13-dihydro-5,7-dioxo-6H-indolo[2,3-a]pyrrolo[3,4-c]carbazole], for which the concentration for half-maximal inhibition (IC50) is 144 nM. For `Cc1ccc(CNC(=O)OCC2(O)Cn3c4ccccc4c4c5c(c6c7ccccc7n(c6c43)C2)C(=O)NC5)o1` (centres unmarked) [Cpd 141, 12,13-(2-hydroxy-2-{[(5-methyl-furan-2-yl)methyl]carbamoyloxymethyl}-propan-1,3-yl)-6,7,12,13h-tetrahydro-5-oxo-5H-indolo[2,3-a]pyrrolo[3,4-c]carbazole] the value was 117 nM. As for `CN1CCC(N(C)Cc2ccc3c(c2)c2c4c(c5c6ccccc6n6c5c2n3CC(O)C(O)C6)CNC4=O)CC1` (centres unmarked) [Cpd 196, 3-{[N-methyl-N-(1-methyl-piperidin-4-yl)]aminomethyl}-12,13-(2,3-dihydroxy-butan-1,4-yl)-6,7,12,13-tetrahydro-5-oxo-5H-indolo[2,3-a]pyrrolo[3,4-c]carbazole], the figure is roughly 1000 nM; as for `CC(C)NC(=O)OCC1Cn2c3ccccc3c3c4c(c5c6ccccc6n(c5c32)C1)C(=O)NC4` (centres unmarked) [Cpd 155], 144 nM. Regarding `CN(C)CCNC(=O)OC1Cn2c3ccccc3c3c4c(c5c6ccccc6n(c5c32)CC1O)C(=O)NC4=O` (centres unmarked) [Cpd 77, 12,13-[2-[(2-dimethylamino-ethyl)carbamoyloxy]-3-hydroxy-butan-1,4-yl]-12,13-dihydro-5,7-dioxo-6H-indolo[2,3-a]pyrrolo[3,4-c]carbazole], the IC50 came out at 86 nM. As for `O=C1NCc2c1c1c3ccccc3n3c1c1c2c2ccccc2n1CC(O)(CO)C3` (centres unmarked) [Cpd 25, 12,13-(2-hydroxy-2-hydroxymethyl-propan-1,3-yl)-6,7,12,13-tetrahydro-5-oxo-5H-indolo[2,3-a]pyrrolo[3,4-c]carbazole], the figure is 29 nM; as for `O=C1NCc2c1c1c3cc(/C=C/n4ccnc4)ccc3n3c1c1c2c2ccccc2n1CC(CO)C3` (centres unmarked) [Cpd 220, 3-[(2E)-2-1H-imidazol-1-yl-ethenyl]-12,13-(2-hydroxymethyl-propan-1,3-yl)-6,7,12,13-tetrahydro-5-oxo-5H-indolo[2,3-a]pyrrolo[3,4-c]carbazole], 90 nM. `O=C(NCCCN1CCCC1=O)OCC1Cn2c3ccccc3c3c4c(c5c6ccccc6n(c5c32)C1)C(=O)NC4` (centres unmarked) [Cpd 157, 12,13-(2-{[3-(2-oxo-pyrrolidin-1-yl)prop-1-yl]carbamoyloxymethyl}-propan-1,3-yl)-6,7,12,13-tetrahydro-5-oxo-5H-indolo[2,3-a]pyrrolo[3,4-c]carbazole]: the IC50 is greater than 200 nM. For `NS(=O)(=O)c1ccc(CCNC(=O)OC2Cn3c4ccccc4c4c5c(c6c7ccccc7n(c6c43)CC2O)C(=O)NC5=O)cc1` (centres unmarked) [Cpd 105, 12,13-(2-{[2-(4-sulfonylamino-phenyl)ethyl]carbamoyloxy}-3-hydroxy-butan-1,4-yl)-12,13-dihydro-5,7-dioxo-6H-indolo[2,3-a]pyrrolo[3,4-c]carbazole] the value was 15 nM; for `O=C1NCc2c1c1c3ccccc3n3c1c1c2c2ccccc2n1CC(O)(COC(=O)N1CCN(c2ccncc2)CC1)C3` (centres unmarked) [Cpd 144, 12,13-{2-hydroxy-2-[(4-pyridin-4-yl-piperazin-1-yl)carbonyloxymethyl]-propan-1,3-yl}-6,7,12,13-tetrahydro-5-oxo-5H-indolo[2,3-a]pyrrolo[3,4-c]carbazole], 886 nM; for `O=C1NC(=O)c2c1c1c3ccccc3n3c1c1c2c2ccccc2n1C/C=C\C3` [Cpd 1, 12,13-(but-2-en-1,4-yl)-12,13-dihydro-5,7-dioxo-6H-indolo[2,3-a]pyrrolo[3,4-c]carbazole], 22 nM.
